Measurements reported in patent publication US20260209152A1, “Substituted Hydroxystilbene Compounds and Derivatives, Synthesis and Uses Thereof” (Kynan Duke IP, LLC, priority 2019, published 2026).
Where two headings read alike, the source gives them in different places.

Tested on: IL-17A secretion from human PBMC stimulated with antiCD3/antiCD28-coated beads
Assay: PBMC IL-17 assay (assay number 1321)
Assay type: cell-based
Conditions: for Max Eff.: IL-17 (1321): highest effect as percentage of control maximum effect
Protocol: Inhibition of IL-17A secretion from human PBMC stimulated with antiCD3/antiCD28-coated beads. LEO Pharma Open Innovation assay number 1321
The inflammatory skin disease psoriasis is characterized by cytokines IL-17A and TNFα. In the present assay, human peripheral blood mononuclear cells (PBMC) are stimulated with beads coated with antibodies against CD3 and CD28 to activate the T-cell receptor, and stimulated with IL-23 to promote T-helper17 activity. The cells are incubated for three days, then the secreted level of IL-17A is measured in the culture supernatant using AlphaLISA and the amount of living cells is measured by addition of resazurin (PrestoBlue®) to identify compounds that inhibit cell proliferation or viability. […] Compounds which inhibit IL-17A secretion may be expected to have efficacy in psoriasis.
• PBMC are isolated from fresh human buffy coats by centrifugation on Lymphoprep® following instructions from Sebmate® • Cells are spun down and resuspended in freezing medium (RPMI1640+20% FBS+5% DMSO) • Cells are frozen in aliquots of 8×10^7 cells/vial matching one 384 plate. Cells are placed in Coolcell box and placed in −80° C. freezer for one day. Vials are moved to the −150° C. freezer in a prechilled box.
• Prepare assay medium: RPMI1640+10% heat inactivated FBS and 1% pen/strep, supplemented with human IL-23, 20 ng/mL (R&D systems, cat no 1290-IL-010) • Test compounds: Prepare compound-containing source plate, i.e. titrations in DMSO to be transferred to the assay plate. • Add 70 nL compounds and controls from the source plate to the assay plate. • Thaw the cells by adding 1 vial to 20 ml warm assay medium • Centrifuge the cells down at 170 G in 10 minutes, remove the supernatant and resuspend in new medium. • Filter the cells though a 37 µm strainer. • Count the cells in the cell counter. • Beads (T Cell Activation/Expansion Kit-human, Miltenyi Biotech, cat. no. 130-091-441): Coat beads with antibodies (antiCD3 and antiCD28) according to the kit procedure. • Add the beads to the cells, one bead per cell, 2.1e+06 cells/ml. Use a pipette to mix the cells and beads carefully. • Seed the cell/bead mixture into the assay plate, 70 μL/well ([…]) • Place the plates in a humidity chamber with lid (24.5×24.5 cm box added H2O in the bottom). • Incubate plates at 37° C., 5% CO2/95% air for 3 days.
• IL-17A concentration in the supernatants is measured using an alphaLISA kit (Perkin Elmer, cat no. AL219F). • Pretest to find optima dilution of samples: Test 5 μL supernatant from control wells and run IL-17A alphaLISA assay with only 2 hours of incubation. • When data are available, remove assay plates from incubation and equilibrate to room temperature for 30 minutes. • Transfer 5 μL or corrected amounts of supernatant to a 384-proxy plate • Add 5 μL alphaLISA acceptor beads. • Incubate 1 hour at room temperature • Add 5 μL donor beads • Incubate overnight at room temperature protected from light. • Add 7 μL PrestoBlue reagent (resazurin)/well to the assay plate and incubated for 2-4 hours at 37° C./5% CO2. The fluorescence in the wells is measured (Ex615/Em 535).
IL-17A concentration in the supernatants is measured using an alphaLISA kit (Perkin Elmer, cat no. AL219F).
The capacity of the test compound to inhibit IL-17A release is normalized to the signal in the negative control wells treated with a toxic compound, Terfenadine.

[1] = inhibition of IL-17A secretion, human PBMC, read-out: Abs EC50: IL-17 (1321)

SMILES	reduction of IL-17A release, in words	EC50 (Homo sapiens, PBMC, read-out: EC50, inhibition of IL-17A secretion) [µM]	Emax (Homo sapiens, PBMC, read-out: maximum efficacy, IL-17A secretion) [%]	Max Eff.: IL-17 (1321) [%]	EC50 [1] [µM]
CCOc1cc(O)cc(/C=C/c2ccc(NC=O)c(OC)c2)c1CC=C(C)C [Compound 28, (E)-N-(4-(3-Ethoxy-5-hydroxy-2-(3-methylbut-2-en-1-yl)styryl)-2-methoxyphenyl)formamide]	low potency reduction of IL-17A release	0.526	73	73	0.526
CCOc1cc(O)cc(/C=C/c2ccc(NC(=O)C(=O)O)c(OC)c2)c1CC=C(C)C [Compound 35, (E)-2-((4-(3-Ethoxy-5-hydroxy-2-(3-methylbut-2-en-1-yl)styryl)-2-methoxyphenyl)amino)-2-oxoacetic acid]	–	–	–	19	5
COc1cc(/C=C/c2cc(O)cc(OC)c2CC=C(C)C)ccc1NC=O [Compound 27, (E)-N-(4-(5-hydroxy-3-methoxy-2-(3-methylbut-2-en-1-yl)styryl)-2-methoxyphenyl)formamide]	significantly less effective	–	–	65	2.12
CCOc1cc(O)cc(/C=C/c2ccc(O)c(O)c2)c1CC=C(C)C [Compound 20, (E)-4-(3-Ethoxy-5-hydroxy-2-(3-methylbut-2-en-1-yl)styryl)benzene-1,2-diol]	–	–	–	85	1.65
COc1cc(/C=C/c2cc(O)cc(OC)c2CC=C(C)C)ccc1O [Compound 1, (E)-3-(4-hydroxy-3-methoxystyryl)-5-methoxy-4-(3-methylbut-2-en-1-yl)phenol]	–	–	–	54	4.43
COc1cc(/C=C/c2cc(O)cc(OC)c2CC=C(C)C)ccc1NC(=O)CN [Compound 31, (E)-2-amino-N-(4-(5-hydroxy-3-methoxy-2-(3-methylbut-2-en-1-yl)styryl)-2-methoxyphenyl)acetamide]	–	–	–	53	4.87
CCOc1cc(O)cc(/C=C/c2ccc(O)c(OC)c2)c1CC=C(C)C [Compound 8, (E)-3-Ethoxy-5-(4-hydroxy-3-methoxystyryl)-4-(3-methylbut-2-en-1-yl)phenol]	–	–	–	69	1.55
